# Reference: patent US20100144815A1, “AMINO ACID COMPOSITION” (priority 2007, published 2010)
# Assays:
# [1] = test system: Mouse fibroblasts (3T3-L1 cells); experiment: Fatty acid releasing activity in mouse fibroblasts differentiated to adipocytes (NEFA-C Test Wako); assay type: cell-based; details: 1 μM in PBS, 4 hours; triplicate; control 0.024
# Description: The induction of differentiation from mouse fibroblasts (3T3-L1 cells) to adipocytes was carried out in 12-well multiwell plates according to a known procedure. After treatment over about 2 weeks to induce differentiation to adipocytes, it was confirmed under a microscope that large differences in the differentiation induction activity were not present among these wells.
# […] After 4 hours, 5 μL of the PBS solution was picked up and was transferred to a 96-well multiwell plate. The amount of free-fatty acid was measured on the 96-well multiwell plate by using a NEFA-C Test Wako which is for measuring free-fatty acid.
# The principle of measuring the amount of free-fatty acid is as follows. AcylCoA is produced by the reaction between acylCoA synthetase (ACS) and free-fatty acid. The reaction of acylCoA oxidase (ACOD) with the produced acylCoA generates hydrogen peroxide, and in the presence of this hydrogen peroxide, oxidative condensation between 3-methyl-N-ethyl-N-(β-hydroxyethyl)aniline (MEHA) and 4-aminoantipyrine was done, and thereby a blue-purple dye was produced. The amount of free fatty acid can be detected by measurement Of the optimal absorbance of this blue-purple dye. A large quantity of free fatty acid indicates a high level of lipolysis and an inhibition of intracellular fat accumulation […].
# [2] = test system: athletes of sports which need endurance; experiment: Endurance exercise test in athletes after beverage ingestion (stationary bicycle, crossover); assay type: in vivo, human
# Description: The object of these experiments was 12 athletes (6 males, 6 females) of sports which need endurance (for example, cycling, rowing, or triathlon). The following (a)-(c) were evaluated for a beverage containing the amino acid composition of the present invention, water, and flavor (Example 1), a beverage containing glucose, water, and flavor (Comparative Example 1), and a beverage containing water and flavor (Comparative Example 2): (a) work done during full exercise, (b) total amount of fat oxidation during steady-state submaximal exercise, (c) changes of plasma glucagon concentration and free-fatty acid, and (d) change of blood lactate concentration.
# The test used a 3-way double-blind crossover design. The 12 athletes were divided into 6 groups. Each of the groups, which contains 2 athletes, is used in each of the following six kinds of experimental sequential procedures with 3 kinds of beverages (i.e. Example 1 and Comparative Examples 1 and 2).
# In FIG. 1, the time, when the fasting was finished, was designated as the base time (i.e. time 0). A prescribed diet and limited exercise had been done during the period from 24 hours before the base time to 12 hours before the base time; fasting was carried out in the period of from 12 hours before the base time to time 0; and the beverage (i.e. Example 1, Comparative Example 1, or Comparative Example 2) was orally ingested at 30 minutes after the finish of the fasting. After the lapse of 30 minutes after ingesting the beverage (designated as the “sample” in FIG. 1), exercise with a stationary training bicycle was performed for 85 minutes at a work load equivalent to 65% of the maximum oxygen intake (referred to below as steady-state submaximal exercise), and, after finishing steady-state submaximal exercise, as much work as possible was completed in 5 minutes on the stationary training bicycle.
# [3] = test system: Mouse fibroblasts (3T3-L1 cells); experiment: Inhibition of differentiation of mouse fibroblasts into adipocytes, measured as GPDH activity; assay type: cell-based; details: 10 μM in D-MEM medium; control without addition 370 units
# Description: Experiments were carried out for investigating whether the amino acid composition of the present invention is active in inhibiting the intracellular accumulation of fat granules (specifically, the ability to inhibit the induction of the differentiation of preadipocytes).
# Mouse fibroblasts (3T3-LI cells) efficiently differentiate into adipocytes in the presence of dexamethasone (DEX), isobutylmethylxanthine (IBMX), and insulin. It is known that the addition of “Wortmannin”, which is a substance that inhibits the induction of differentiation to adipocytes, inhibits differentiation into adipocytes. This inhibitory effect can be evaluated by measuring the GPDH activity.
# The GPDH activity is quantitated in terms of units where 1 unit equals 1 nmol of NADH which is oxidized for one minute in 1 mL of the culture medium for inducing the differentiation of mouse fibroblasts (3T3-LI cells) into adipocytes. A smaller value of units indicates a greater inhibitory effect on differentiation and a greater inhibition of intracellular fat granule accumulation.
# The culture medium was obtained by dissolving the same amino acid composition of the present invention as that in Example 1 into D-MEM medium (i.e. serum-containing liquid medium) to provide a concentration of 1 mass %. Almost of the all amount of the amino acid composition was dissolved well by ultrasonication. […]
compound,measurement,setting,value
"CC(C)NCC(O)c1ccc(O)c(O)c1 (racemic) [Comparative Example 9, dl-isoproterenol]",average value of absorbance (amount of free-fatty acid),[1],0.041
"O=C[C@H](O)[C@@H](O)[C@H](O)[C@H](O)CO [Comparative Example 1, glucose]",amount of work during the 5 minutes of full exercise (average value of the 12 participants),"[2]; 380 g beverage (6 g active) orally 30 min before 85 min steady-state submaximal exercise, then 5 min full exercise",83.3 kJ
same,total amount of fat oxidation during 85-minute steady-state submaximal exercise,[2]; beverage orally 30 min before exercise at 65% of maximum oxygen intake,49.3 g
same,concentration of lactic acid after 5-minute full exercise,"[2]; blood, after full exercise",8.8 mmol/L
same,concentration of lactic acid immediately before full exercise (after the sustained exercise period),"[2]; blood, before full exercise",1.5 mmol/L
"COC[C@H]1OC(=O)c2coc3c2[C@@]1(C)C1=C(C3=O)[C@@H]2CCC(=O)[C@@]2(C)C[C@H]1OC(C)=O [Comparative Example 4, Wortmannin]",GPDH activity,[3],47 units
